# How the values were obtained:
# Format in all cases: cell-based
# [1] = test system: mouse microvascular endothelial cells (SVEC4-10); assay: cell viability by trypan blue exclusion and viable cell number counting, SVEC4-10; settings: SVEC4-10, LMH001 5 and 10 μM, 24 h, trypan blue exclusion
# Procedure: FIG. 7 is a graph showing no cytotoxicity of LMH001 on living mouse microvascular endothelial cells (SVEC4-10) and human liver hepatocyte cells (HepG2), assessed by trypan blue exclusion and viable cell number counting. Cells were cultured with LMH001 (5 and 10 μM) for 24 h. Cell viabilities of SVEC4-10 cells and HepG2 cells in the presence of LMH001 (5 and 10 μM) were expressed as % of alive cells compared to cells in the absence of LMH001 (control, 100%). Results are presented as mean±SD (n=3).
# The mouse lymph node microvascular endothelial cell line (SVEC4-10) was from the American Type Culture Collection (CRL-2167) and grown in DMEM, containing 10% (v/v) heat inactivated foetal calf serum, 100 U/mL penicillin and […] streptomycin, in a humidified atmosphere at 37° C. with 5% CO2.
# Cell viability and membrane integrity in the presence and absence of LMH001 were assessed using the trypan blue exclusion assay as described previously (15). Briefly, cells (1×10^6) were seeded onto 10 cm^2 culture dishes and allowed to adhere for 4 hours in 10% (v/v) FCS medium. […] At the time of experiment, cells were harvested by 0.25% Trypsin/EDTA, pelleted, resuspended in serum free medium and counted using a haemocytometer in the presence of trypan blue (0.4%) solution. The number of viable cells was calculated as a percentage of total cells.
# [2] = test system: human liver hepatocyte cells (HepG2 cells); assay: MTT assay for cytotoxicity, HepG2; settings: HepG2, LMH001 5 and 10 μM, 24 h
# Procedure: FIG. 8 is a graph showing no cytotoxicity of LMH001 on living mouse microvascular endothelial cells (SVEC4-10 cells) and human liver hepatocyte cells (HepG2 cells), assessed by means of an MTT assay. Cells were cultured with LMH001 (5 and 10 μM) for 24 h. MTT is a yellow tetrazolium reagent which can be converted by living cells to insoluble blue formazan crystal in the medium. The insoluble blue formazan crystals were then dissolved in DMSO and measured for absorbance at 570 nm by a plate reader. Higher absorbance corresponds to more living cells. Results are presented as mean±SD (n=3).
# HepG2 is a human hepatocytic cell line (ATCC No. HB-8065) that was originally derived from liver tissue with a well differentiated hepatocellular carcinoma. HepG2 cells have been proven to be a suitable in vitro model system for the study of human hepatocytes, and the study of liver metabolism and toxicity. HepG2 cells were grown in DMEM, containing 10% (v/v) heat inactivated foetal calf serum, 100 U/mL penicillin and […] streptomycin, in a humidified atmosphere at 37° C. with 5% CO2.
# The potential cytotoxicity of LMH001 on cultured endothelial cells (SVEC4-10) and liver cells (HepG2) was assessed using the MIT assay as described previously (16). […] Absorbance was measured at 570 nm in an ELISA plate reader and the mean of 3 blank readings was subtracted from each corrected value.
# [3] = test system: human lung alveolar epithelial cancer cells (A549 cells); assay: EGF-induced O2.- production in A549 cells, lucigenin-chemiluminescence; settings: LMH001 5 μM, 24 h
# Procedure: (§1) A549 cells were seeded at equal number the day before experiments and then stimulated with or without […] (EGF, 10 ng/ml) for 24 h in the presence or absence of LMH001 (5 μM). Cells were then trypsinized and counted. Cell homogenates were used for measuring O2.^− production by lucigenin-chemiluminescence in the presence of NADPH (100 μM).
# (§2) A549 is a human lung adenocarcinoma epithelial cell line. A549 cells were grown in DMEM, containing 10% (v/v) heat inactivated foetal calf serum, 100 U/mL penicillin and […] streptomycin, in a humidified atmosphere at 37° C. with 5% CO2.
# O2^− production by different cell types was measured using lucigenin (5 μM)-chemiluminescence. A microplate luminometer (LumiStar, BMG) was used, which allows the examination of 96 samples at the same time with kinetic reading facilities. […] Dark-adapted lucigenin (5 μM) was added into the well through an auto-dispenser located in the dark chamber just before reading. The light emission was recorded over a 60 minute period and expressed as arbitrary MLU measured by the illuminometer. Each experiment was performed in triplicate and the mean of 3 blank readings was subtracted from each corrected value for each reading. […]
# [4] = test system: human lung alveolar epithelial cancer cells (A549 cells); assay: EGF-induced cell proliferation of A549 cells (cell counting); settings: LMH001 5 μM, 24 h
# Procedure: as §1, §2
# [5] = no EGF, compared to medium only
structure (smiles),measurement,setting,value
"O=C(OCc1cccc(O)c1O)c1ccc(O)c(CO)c1 [LMH001, (2,3,-dihydroxyphenyl)methyl 4-hydroxy-3-(hydroxymethyl)benzoate]",cell viability (% of alive cells vs control),[1],no significant difference
same,"cytotoxicity, MTT absorbance at 570 nm",[2],no significant difference
same,EGF-induced O2.- production,[3]; EGF 10 ng/ml,inhibited completely
same,"A549 cell O2.- production, LMH001 alone",[3]; [5],no significant effect
same,EGF-induced A549 cell proliferation,"[4]; EGF 10 ng/ml, cells counted",inhibited completely
same,"A549 cell proliferation, LMH001 alone",[4]; [5],no significant effect

# Source: patent US20150045387A1, “Bi-Aromatic And Tri-Aromatic Compounds As NADPH Oxidase 2 (Nox2) Inhibitors” (The University of Surrey, priority 2011, published 2015)
